Test results taken from ChEMBL document CHEMBL1137656, “Effects of serum on in vitro susceptibility testing of echinocandins” (Antimicrob Agents Chemother, 2007).
Numbered stars: 1 amine (or outer) side, 2 acyl side, 3 side chain; on linkers, the order of the positions; unused ones are H or OH. Bridge positions count the residues as written; N and C are the ends. Square brackets hold non-standard residues; d marks the D form. Peptide text beside a SMILES is read from it. * marks the point of attachment. hTyr(3S-OH,4S-OH,3'-OSO3H) = N[C@H](C(=O)O)[C@H](O)[C@@H](O)c1ccc(O)c(OS(=O)(=O)O)c1; pTerphenylCO(4''-OnC5H11) = CCCCCOc1ccc(-c2ccc(-c3ccc(C(=O)*)cc3)cc2)cc1; Orn(4R-OH,5R-OH) = O=C([C@H](C[C@@H](O)[C@@H](O)N[*:3])N[*:1])[*:2]; hTyr(3S-OH,4S-OH) = N[C@H](C(=O)O)[C@H](O)[C@@H](O)c1ccc(O)cc1; Pro(3S-OH,4S-Me) = C[C@H]1CN[C@H](C(=O)O)[C@H]1O; X1 = CCCCCOc1ccc(-c2cc(-c3ccc(C(=O)*)cc3)no2)cc1; Gln(3R-OH) = NC(=O)C[C@@H](O)[C@H](N)C(=O)O; Hyp = O=C(O)[C@@H]1C[C@@H](O)CN1

Columns and labels:
Assay type in all cases: functional
[1] = system: Aspergillus flavus; assay: Antifungal activity against Aspergillus flavus isolate 0001-033 after 24 hrs by CLSI M38-A broth microdilution method in presence of 50% human serum; settings: isolate 0001-033, 24 h
[2] = system: Aspergillus fumigatus; assay: Antifungal activity against Aspergillus fumigatus isolate 0020-018 after 24 hrs by CLSI M38-A broth microdilution method in presence of RPMI 1640 medium; settings: isolate 0020-018, 24 h
[3] = system: Clavispora lusitaniae; assay: Ratio of MIC50 for Candida lusitaniae isolate 0013-002 in presence of 50% human serum to MIC50 for Candida lusitaniae isolate 0013-002 in presence of RPMI 1640 medium
[4] = system: Clavispora lusitaniae; assay: Antifungal activity against Candida lusitaniae isolate 0015-049 after 24 hrs by CLSI M27-A2 broth microdilution method in presence of 50% human serum
[5] = system: Candida parapsilosis; assay: Antifungal activity against Candida parapsilosis isolate 0026-003 after 24 hrs by CLSI M27-A2 broth microdilution method in presence of 50% human serum; settings: Lodderomyces parapsilosis, isolate 0026-003, 24 h
[6] = system: Pichia kudriavzevii; assay: Antifungal activity against Candida krusei isolate 0001-058 after 24 hrs by CLSI M27-A2 broth microdilution method in presence of 50% human serum; settings: isolate 0001-058, 24 h
[7] = system: Candida albicans; assay: Antifungal activity against Candida albicans isolate 0021-076 after 24 hrs by CLSI M27-A2 broth microdilution method in presence of RPMI 1640 medium; settings: isolate 0021-076, 24 h
[8] = system: Aspergillus flavus; assay: Ratio of MIC50 for Aspergillus flavus isolate 0001-033 in presence of 50% human serum to MIC50 for Aspergillus flavus isolate 0001-033 in presence of RPMI 1640 medium
[9] = system: Candida parapsilosis; assay: Ratio of MIC50 for Candida parapsilosis isolate 0026-003 in presence of 50% human serum to MIC50 for Candida parapsilosis isolate 0026-003 in presence of RPMI 1640 medium
[10] = system: Candida parapsilosis; assay: Antifungal activity against Candida parapsilosis isolate 0011-013 after 24 hrs by CLSI M27-A2 broth microdilution method in presence of 50% human serum; settings: Lodderomyces parapsilosis, isolate 0011-013, 24 h
[11] = system: Aspergillus fumigatus; assay: Ratio of MIC50 for Aspergillus fumigatus isolate […] in presence of 50% human serum to MIC50 for Aspergillus fumigatus isolate 0020-018 in presence of RPMI 1640 medium
[12] = system: Clavispora lusitaniae; assay: Antifungal activity against Candida lusitaniae isolate 0013-002 after 24 hrs by CLSI M27-A2 broth microdilution method in presence of RPMI 1640 medium; settings: isolate 0013-002, 24 h
[13] = system: Aspergillus niger; assay: Ratio of MIC50 for Aspergillus niger isolate 0001-073 in presence of 50% human serum to MIC50 for Aspergillus niger isolate 0001-073 in presence of RPMI 1640 medium
[14] = system: Aspergillus fumigatus; assay: Ratio of MIC50 for Aspergillus fumigatus isolate 0002-020 in presence of 50% human serum to MIC50 for Aspergillus fumigatus isolate 0002-020 in presence of RPMI 1640 medium
[15] = system: Candida parapsilosis; assay: Antifungal activity against Candida parapsilosis isolate 0036-030 after 24 hrs by CLSI M27-A2 broth microdilution method in presence of 50% human serum; settings: Lodderomyces parapsilosis, isolate 0036-030, 24 h
[16] = system: Clavispora lusitaniae; assay: Antifungal activity against Candida lusitaniae isolate 0013-002 after 24 hrs by CLSI M27-A2 broth microdilution method in presence of 50% human serum; settings: isolate 0013-002, 24 h
[17] = system: Candida tropicalis; assay: Antifungal activity against Candida tropicalis isolate 0022-021 after 24 hrs by CLSI M27-A2 broth microdilution method in presence of 50% human serum; settings: isolate 0022-021, 24 h
[18] = system: Aspergillus fumigatus; assay: Antifungal activity against Aspergillus fumigatus isolate 0002-0016 after 24 hrs by CLSI M38-A broth microdilution method in presence of RPMI 1640 medium; settings: isolate 0002-0016, 24 h
[19] = system: Nakaseomyces glabratus; assay: Ratio of MIC50 for Candida glabrata isolate 0049-038 in presence of 50% human serum to MIC50 for Candida glabrata isolate 0049-038 in presence of RPMI 1640 medium
[20] = system: Candida parapsilosis; assay: Ratio of MIC50 for Candida parapsilosis isolate 0014-074 in presence of 50% human serum to MIC50 for Candida parapsilosis isolate 0014-074 in presence of RPMI 1640 medium
[21] = system: Aspergillus fumigatus; assay: Antifungal activity against Aspergillus fumigatus isolate 0002-020 after 24 hrs by CLSI M38-A broth microdilution method in presence of RPMI 1640 medium; settings: isolate 0002-020, 24 h
[22] = system: Aspergillus fumigatus; assay: Ratio of MIC50 for Aspergillus fumigatus isolate 0002-0016 in presence of 50% human serum to MIC50 for Aspergillus fumigatus isolate 0002-0016 in presence of RPMI 1640 medium
[23] = system: Aspergillus terreus; assay: Ratio of MIC50 for Aspergillus terreus isolate 0031-087 in presence of 50% human serum to MIC50 for Aspergillus terreus isolate 0031-087 in presence of RPMI 1640 medium
[24] = system: Aspergillus fumigatus; assay: Antifungal activity against Aspergillus fumigatus isolate 0002-020 after 24 hrs by CLSI M38-A broth microdilution method in presence of 50% human serum; settings: isolate 0002-020, 24 h
[25] = system: Nakaseomyces glabratus; assay: Antifungal activity against Candida glabrata isolate 0049-038 after 24 hrs by CLSI M27-A2 broth microdilution method in presence of 50% human serum; settings: isolate 0049-038, 24 h
[26] = system: Candida parapsilosis; assay: Ratio of MIC50 for Candida parapsilosis ATCC 22019 in presence of 50% human serum to MIC50 for Candida parapsilosis ATCC 22019 in presence of RPMI 1640 medium
[27] = system: Candida tropicalis; assay: Antifungal activity against Candida tropicalis isolate 0050-028 after 24 hrs by CLSI M27-A2 broth microdilution method in presence of 50% human serum; settings: isolate 0050-028, 24 h
[28] = system: Candida parapsilosis; assay: Antifungal activity against Candida parapsilosis ATCC 22019 after 24 hrs by CLSI M27-A2 broth microdilution method in presence of RPMI 1640 medium; settings: Lodderomyces parapsilosis, ATCC 22019, 24 h
[29] = system: Clavispora lusitaniae; assay: Ratio of MIC50 for Candida lusitaniae isolate 0015-049 in presence of 50% human serum to MIC50 for Candida lusitaniae isolate 0015-049 in presence of RPMI 1640 medium
[30] = system: Nakaseomyces glabratus; assay: Antifungal activity against Candida glabrata isolate 0049-038 after 24 hrs by CLSI M27-A2 broth microdilution method in presence of RPMI 1640 medium; settings: isolate 0049-038, 24 h
[31] = system: Candida parapsilosis; assay: Antifungal activity against Candida parapsilosis isolate 0014-074 after 24 hrs by CLSI M27-A2 broth microdilution method in presence of RPMI 1640 medium; settings: Lodderomyces parapsilosis, isolate 0014-074, 24 h
[32] = system: Candida tropicalis; assay: Ratio of MIC50 for Candida tropicalis isolate 0022-021 in presence of 50% human serum to MIC50 for Candida tropicalis isolate 0022-021 in presence of RPMI 1640 medium

SMILES	MIC50 [1] [µg/mL]	MIC50 [2] [µg/mL]	Ratio [3]	MIC50 [4] [µg/mL]	MIC50 [5] [µg/mL]	MIC50 [6] [µg/mL]	MIC50 [7] [µg/mL]	Ratio [8]	Ratio [9]	MIC50 [10] [µg/mL]	Ratio [11]	MIC50 [12] [ng/mL]	Ratio [13]	Ratio [14]	MIC50 [15] [µg/mL]	MIC50 [16] [µg/mL]	MIC50 [17] [µg/mL]	MIC50 [18] [µg/mL]	Ratio [19]	Ratio [20]	other results
CCCCCOc1ccc(-c2ccc(-c3ccc(C(=O)N[C@H]4C[C@@H](O)[C@@H](O)NC(=O)[C@@H]5[C@@H](O)[C@@H](C)CN5C(=O)[C@H]([C@@H](C)O)NC(=O)[C@H]([C@H](O)[C@@H](O)c5ccc(O)cc5)NC(=O)[C@@H]5C[C@@H](O)CN5C(=O)[C@H]([C@@H](C)O)NC4=O)cc3)cc2)cc1 [ANIDULAFUNGIN] ({pTerphenylCO(4''-OnC5H11)}-[Orn(4R-OH,5R-OH)]T[Hyp][hTyr(3S-OH,4S-OH)]T[Pro(3S-OH,4S-Me)]; lactam 1-C)	128	0.5	512	1	128	1	0.5	32	64	2	256	2	512	64	128	1	2	2	32	64	MIC50 [21]: 8 ng/mL; Ratio [22]: 64; Ratio [23]: 16; MIC50 [24]: 0.5 µg/mL; MIC50 [25]: 2 µg/mL; Ratio [26]: 128; MIC50 [27]: 128 µg/mL; MIC50 [28]: 0.5 µg/mL; Ratio [29]: 8; MIC50 [30]: 0.0625 µg/mL; MIC50 [31]: 0.004 µg/mL; Ratio [32]: 128
CCCCCOc1ccc(-c2cc(-c3ccc(C(=O)N[C@H]4C[C@@H](O)[C@@H](O)NC(=O)[C@@H]5[C@@H](O)[C@@H](C)CN5C(=O)[C@H]([C@H](O)CC(N)=O)NC(=O)[C@H]([C@H](O)[C@@H](O)c5ccc(O)c(OS(=O)(=O)O)c5)NC(=O)[C@@H]5C[C@@H](O)CN5C(=O)[C@H]([C@@H](C)O)NC4=O)cc3)no2)cc1 [MICAFUNGIN] (X1-[Orn(4R-OH,5R-OH)]T[Hyp][hTyr(3S-OH,4S-OH,3'-OSO3H)][Gln(3R-OH)][Pro(3S-OH,4S-Me)]; lactam 1-C)	128	0.0156	128	4	64	2	0.5	1024	128	4	32	8	128	128	128	1	2	0.0313	256	32	MIC50 [21]: 4 ng/mL; Ratio [22]: 64; Ratio [23]: 128; MIC50 [24]: 0.5 µg/mL; MIC50 [25]: 1 µg/mL; Ratio [26]: 64; MIC50 [27]: 32 µg/mL; MIC50 [28]: 0.5 µg/mL; Ratio [29]: 256; MIC50 [30]: 0.004 µg/mL; MIC50 [31]: 0.0156 µg/mL; Ratio [32]: 128
CC[C@H](C)C[C@H](C)CCCCCCCCC(=O)N[C@H]1C[C@@H](O)[C@@H](NCCN)NC(=O)[C@@H]2[C@@H](O)CCN2C(=O)[C@H]([C@H](O)CCN)NC(=O)[C@H]([C@H](O)[C@@H](O)c2ccc(O)cc2)NC(=O)[C@@H]2C[C@@H](O)CN2C(=O)[C@H]([C@@H](C)O)NC1=O [CASPOFUNGIN]	128	16	1	1	8	0.5	0.5	4	8	1	8	250	512	256	8	0.25	0.5	8	1	2	MIC50 [21]: 500 ng/mL; Ratio [22]: 16; Ratio [23]: 1; MIC50 [24]: 128 µg/mL; MIC50 [25]: 0.5 µg/mL; Ratio [26]: 16; MIC50 [27]: 2 µg/mL; MIC50 [28]: 0.5 µg/mL; Ratio [29]: 2; MIC50 [30]: 0.5 µg/mL; MIC50 [31]: 0.25 µg/mL; Ratio [32]: 1
